Converted amounts (≈) assume the structure as drawn.
Assays:
Experiment in all cases: Antibacterial MIC/MBC (broth microdilution)
[1] = tested on: E. coli 2252 (COL-resistant); type: cell-based, Escherichia coli; conditions: Escherichia coli, E. coli 2252 (COL-resistant); for MBC: read-out: MBC; for MIC: read-out: MIC
Text: (§1) Twelve reference bacterial strains and nine MDR clinically relevant bacterial strains were used in this study. Gram-negative bacteria comprised reference strains E. coli ATCC 25922, K. pneumoniae ATCC 13883, Salmonella enterica serovar Typhimurium CECT 443, P. aeruginosa ATCC 27853, A. baumannii ATCC 19606, C. jejuni ATCC 33560 (ATCC—American Type Culture Collection; CECT—Colección Espanola de Cultivos Tipo); clinical isolates E. coli SA/2, an extended-spectrum β-lactamase (ESBL)-producing strain and P. aeruginosa 33b, a pan-drug-resistant isolate; and animal isolates C. jejuni P5/4, a ciprofloxacin-resistant strain, C. jejuni 4432, C. jejuni 4433, C. jejuni 4448, and E. coli 2252, a COL-resistant strain [42]. Gram-positive strains included S. aureus ATCC 29213, E. faecalis ATCC 29212, S. pyogenes ATCC 19615, and environmental isolates methicillin-resistant S. aureus (MRSA) 66/1 [43], and VAN-resistant enterococci (VRE) E. faecalis B3/101 [44]. Gram-negative fish pathogens Yersinia ruckeri ATCC 29473, Listonella anguillarum ATCC 1924, and Tenacibaculum maritimum ATCC 43397 were also included.
(§2) Strains were kept in Trypto-Casein Soy agar (TSA—Biokar Diagnostics, Allone, Beauvais, France) slants and, before each assay, were sub-cultured in Mueller-Hinton agar (MHA—Biokar Diagnostics, Allone, Beauvais, France). Y. ruckeri ATCC 29473 and L. anguillarum ATCC 1924 were kept in Nutrient Agar (Condalab, Madrid, Spain) and T. maritimum ATCC 43397 was kept in TMM agar (Condalab, Madrid, Spain), and were sub-cultured in the respective culture media before each assay. For S. pyogenes ATCC 19615, CAMHB was supplemented with 3.75% lysed horse blood (LBH—Oxoid, Basingstoke, England), whereas for C. jejuni it was supplemented with 2.5% LHB. Colony-forming unit counts of the inoculum were conducted to determine the initial inoculum size (which should be approximately 5×10^5 CFU/mL). Sterility and growth controls were included in each assay. The 96-well U-shaped untreated polystyrene microtiter plates were incubated for 20 h at 37 degrees C. (42 degrees C. for C. jejuni, in a microaerophilic atmosphere) and the minimal inhibitory concentration (MIC) was determined as the lowest concentration of compound that prevented visible growth. The minimal bactericidal concentration (MBC) was determined by spreading 100 μL of the content of the wells with no visible growth on MH plates. The MBC was determined as the lowest concentration of compound that killed 99.9% of the initial inoculum after overnight incubation at 37 degrees C. Two independent assays were performed for reference and MDR strains.
(§3) An initial screening of the antibacterial activity of the compounds was performed by the Kirby-Bauer disk diffusion method, as recommended by the Clinical and Laboratory Standards Institute (CLSI). Briefly, sterile 6 mm blank paper disks (Oxoid, Basingstoke, England) impregnated with 15 μg of each compound were placed on inoculated MH agar plates. A blank disk with dimethylsulfoxide (DMSO) was used as a negative control. MH inoculated plates were incubated for 18-20 h at 37 degrees C. At the end of incubation, the inhibition halos where measured. The MIC was used to determine the antibacterial activity of each compound, in accordance with the recommendations of the CLSI. Two-fold serial dilutions of the compounds were prepared in Mueller-Hinton Broth 2 (MHB2—Sigma-Aldrich, St. Louis, MO, USA) within the concentration range of 0.062-64 μg/mL. CTX ranging between 0.031-16 μg/mL was used as a control. Sterility and growth controls were included in each assay. Purity checks and colony counts of the inoculum suspensions were also performed in order to ensure that the final inoculum density closely approximates the intended number (5×10^5 CFU/mL). The MIC was determined as the lowest concentration of compound that inhibited growth of the bacteria. The MBC was assessed by spreading 10 μL of culture collected from wells showing no visible growth on MH agar plates. […]

[2] = tested on: Acinetobacter baumannii ATCC 19606; type: cell-based; conditions: for antibacterial activity (in words): A. baumannii ATCC 19606; for MBC / MIC: ATCC19606, Acinetobacter baumannii ATCC 19606; for MBC: read-out: MBC; for MIC: read-out: MIC
Text: as §1, §2, §3

[3] = tested on: Campylobacter jejuni ATCC 33560; type: cell-based; conditions: ATCC33560, Campylobacter jejuni ATCC 33560; for MBC: read-out: MBC; for MIC: read-out: MIC
Text: as §1, §2, §3

[4] = tested on: Escherichia coli ATCC 25922; type: cell-based; conditions: ATCC25922, Escherichia coli ATCC 25922; for MBC: read-out: MBC; for MIC: read-out: MIC
Text: as §1, §2, §3

[5] = tested on: Klebsiella pneumoniae ATCC 13883; type: cell-based; conditions: ATCC13883, Klebsiella pneumoniae ATCC 13883; for MBC: read-out: MBC; for MIC: read-out: MIC
Text: as §1, §2, §3

[6] = tested on: Listonella anguilarum ATCC 1924; type: cell-based; conditions: for antibacterial activity (in words): Listonella anguilarum; for MBC / MIC: Listonella anguilarum ATCC 1924; for MBC: read-out: MBC; for MIC: read-out: MIC
Text: as §1, §2, §3

[7] = tested on: Pseudomonas aeruginosa ATCC 27853; type: cell-based; conditions: ATCC27853, Pseudomonas aeruginosa ATCC 27853; for MBC: read-out: MBC; for MIC: read-out: MIC
Text: as §1, §2, §3

[8] = tested on: Salmonella enterica serovar Typhimurium CECT 443; type: cell-based; conditions: for MBC: read-out: MBC; for MIC: read-out: MIC
Text: as §1, §2, §3

[9] = tested on: Staphylococcus aureus ATCC 29213; type: cell-based; conditions: for MBC: ATCC29213, read-out: MBC; for MIC: ATCC29213, read-out: MIC
Text: as §1, §2, §3

[10] = tested on: Yersinia ruckeri ATCC 29473; type: cell-based; conditions: for MBC: ATCC29473, read-out: MBC; for MIC: ATCC29473, read-out: MIC
Text: as §1, §2, §3

C. jejuni 4432 = type: cell-based, Campylobacter jejuni; conditions: Campylobacter jejuni; for MBC: read-out: MBC; for MIC: read-out: MIC
Text: as §1, §2, §3

C. jejuni 4433 = type: cell-based, Campylobacter jejuni; conditions: Campylobacter jejuni; for MBC: read-out: MBC; for MIC: read-out: MIC
Text: as §1, §2, §3

C. jejuni 4448 = type: cell-based, Campylobacter jejuni; conditions: Campylobacter jejuni; for MBC: read-out: MBC; for MIC: read-out: MIC
Text: as §1, §2, §3

C. jejuni P5/4 = type: cell-based, Campylobacter jejuni; conditions: Campylobacter jejuni; for MBC: read-out: MBC; for MIC: read-out: MIC
Text: as §1, §2, §3

S. aureus 66/1 (MRSA) = type: cell-based, Staphylococcus aureus; conditions: Staphylococcus aureus; for MBC: read-out: MBC; for MIC: read-out: MIC
Text: as §1, §2, §3

[11] = tested on: Streptococcuss pyogenes ATCC 19615; type: cell-based, Streptococcus pyogenes; conditions: Streptococcus pyogenes, ATCC19615, Streptococcuss pyogenes ATCC 19615; for MBC: read-out: MBC; for MIC: read-out: MIC
Text: as §1, §2, §3

SMILES	MBC [1] [µg/mL]	MIC [1] [µg/mL]	antibacterial activity (in words) [2]	MBC [2] [µg/mL]	MIC [2] [µg/mL]	MBC [3] [µg/mL]	MIC [3] [µg/mL]	MBC [4] [µg/mL]	MIC [4] [µg/mL]	MBC [5] [µg/mL]	MIC [5] [µg/mL]	antibacterial activity (in words) [6]	MBC [6] [µg/mL]	MIC [6] [µg/mL]	MBC [7] [µg/mL]	MIC [7] [µg/mL]	MBC [8] [µg/mL]	MIC [8] [µg/mL]	MBC [9] [µg/mL]	MIC [9] [µg/mL]	other results
C[C@H](CCC(=O)N1CCNCC1)[C@H]1CC[C@H]2[C@@H]3CC[C@@H]4C[C@H](O)CC[C@]4(C)[C@H]3C[C@H](O)[C@]12C [Compound 9, (R)-4-((3R,5R,8R,9S,10S,12S,13R,14S,17R)-3,12-dihydroxy-10,13-dimethylhexadecahydro-1H-cyclopenta[a]phenanthren-17-yl)-1-(piperazin-1-yl) pentan-1-one]	> 64	> 64	displayed an inhibitory effect	64 (≈ 139 µM)	64 (≈ 139 µM)	> 64	> 64	> 64	> 64	> 64	> 64	active	64 (≈ 139 µM)	64 (≈ 139 µM)	> 64	> 64	64 (≈ 139 µM)	64 (≈ 139 µM)	64 (≈ 139 µM)	64 (≈ 139 µM)	MBC [10]: > 64 µg/mL; MIC [10]: > 64 µg/mL; MBC (C. jejuni 4432): > 64 µg/mL; MIC (C. jejuni 4432): > 64 µg/mL; MBC (C. jejuni 4433): > 64 µg/mL; MIC (C. jejuni 4433): > 64 µg/mL; MBC (C. jejuni 4448): > 64 µg/mL; MIC (C. jejuni 4448): > 64 µg/mL; MBC (C. jejuni P5/4): > 64 µg/mL; MIC (C. jejuni P5/4): > 64 µg/mL; MBC (S. aureus 66/1 (MRSA)): 64 µg/mL (≈ 139 µM); MIC (S. aureus 66/1 (MRSA)): 64 µg/mL (≈ 139 µM); MBC [11]: > 64 µg/mL; MIC [11]: > 64 µg/mL
C[C@H](CCC(=O)N1CCN(C(=O)CC[C@H](C)[C@@H]2CC[C@@H]3[C@H]4CC[C@H]5C[C@@H](O)CC[C@@]5(C)[C@@H]4C[C@@H](O)[C@]32C)CC1)[C@H]1CC[C@H]2[C@@H]3CC[C@@H]4C[C@H](O)CC[C@]4(C)[C@H]3C[C@H](O)[C@]12C [Compound 4, (R)-4-((3R,5R,8R,9S,10S,12S,13R,14S,17R)-3,12-dihydroxy-10,13-dimethylhexadecahydro-1H-cyclopenta[a]phenanthren-17-yl)-1-(4-((S)-4-((3S,5S,8S,9R,10R,12R,13S,14R,17S)-3,12-dihydroxy-10,13-dimethylhexadecahydro-1H-cyclopenta[a]phenanthren-17-yl)pentanoyl)piperazin-1-yl) pentan-1-one]	> 64	> 64	displayed an inhibitory effect	64 (≈ 76.6 µM)	64 (≈ 76.6 µM)	> 64	> 64	> 64	> 64	> 64	> 64	active	32 (≈ 38.3 µM)	32 (≈ 38.3 µM)	> 64	> 64	64 (≈ 76.6 µM)	64 (≈ 76.6 µM)	> 64	64 (≈ 76.6 µM)	antibacterial activity (in words) [8]: exhibited antimicrobial activity; antibacterial activity (in words) [10]: displayed antibacterial activity; MBC [10]: 64 µg/mL (≈ 76.6 µM); MIC [10]: 64 µg/mL (≈ 76.6 µM); MBC (C. jejuni 4432): > 64 µg/mL; MIC (C. jejuni 4432): > 64 µg/mL; MBC (C. jejuni 4433): > 64 µg/mL; MIC (C. jejuni 4433): > 64 µg/mL; MBC (C. jejuni 4448): > 64 µg/mL; MIC (C. jejuni 4448): > 64 µg/mL; MBC (C. jejuni P5/4): > 64 µg/mL; MIC (C. jejuni P5/4): > 64 µg/mL; MBC (S. aureus 66/1 (MRSA)): > 64 µg/mL; MIC (S. aureus 66/1 (MRSA)): 64 µg/mL (≈ 76.6 µM); MBC [11]: > 64 µg/mL; MIC [11]: > 64 µg/mL

From patent US20250002450A1, “CATIONIC STEROID COMPOUNDS, METHOD OF OBTAINING THEREOF, FORMULATIONS COMPRISING THEREOF AND THEIR USES” (UNIVERSIDADE DO PORTO, priority 2021, published 2025)
